In brackets after ≈: the same amount, converted by molar mass. Read-outs that look alike come from different tables or passages of the source.
Legend:
HSV-1 = assay: plaque reduction assay, HSV-1 in Vero cells; type: cell-based; details: for cell death observed under microscope: HSV-1 infected Vero cells
Method: (§1) Herpes simplex virus standard strains G (HSV-2) and F (HSV-1) were used in each Example. Virus input for a 6-well plate was 200 pfu/well. HSV susceptible cell line, Vero cells, were used in the virus yield reduction assay. The culture medium for Vero cells is 5% Minimum Essential Medium GIBCO/BRL (MEM) supplemented with 5% fetal bovine serum (200 U/ml penicillin and 200 μg/ml streptomycin).
(§2) To examine the efficacy of fusaric acid on HSV-1 and HSV-2, the susceptible cells were infected with either HSV-1 or HSV-2, then incubated with fusaric acid at concentrations of 0, 1, 10, 30, 60, and 100 μg/ml. The antiviral effect was then determined by plaque reduction assay.
(§3) Confluent cells were washed with PBS and infected with either HSV-1 or HSV-2 (200 pfu/well) for 1 hour at 37° C. The cells were tilled every 20 minutes. After viral inoculum was removed, infected cells were washed with PBS and overlaid with 0.5% methylcellulose in culture medium (equal volume of 1% methylcellulose mixed with 2 times culture medium) containing different doses of testing compounds. The cells were incubated at 37° C. for 2 days for HSV-2 infection and 3 days for HSV-1.
(§4) After plaque size was adequate, the cells were fixed with 20% formalin for 20 minutes and stained with 0.5% crystal violet for 20 minutes. The dye was removed by washing with tap water and left to dry in a fume hood. The plaques were then counted. The experiment was repeated.
(§5) Mean plaque counts in test wells were compared with mean plaque counts in wells not containing the compound (control wells). The antiviral effects of fusaric acid on HSV-1 and HSV-2 are summarized in Table 1 and the antiviral effect of fusaric acid on HSV as determined by plaque reduction assay is shown in FIG. 1.
(§6) EC90-100 (effective concentration giving 90-100% plaque reduction) was approximately 30 μg/ml for both HSV-1 and HSV-2. Control was calculated as the mean plaque count in the drug treated wells divided by the mean plaque count in the control wells. The concentrations giving a 50% reduction in the plaque count of the inoculum (EC50) was then calculated using computer software.
(§7) To examine the efficacy of the combination of fusaric acid and acyclovir on HSV-1 and HSV-2, the plaque reduction assay technique described in Example 1 was employed. The susceptible cells were infected with HSV-1 then incubated with a combination of fusaric acid at concentrations of 0, 1, 10, 30 and 60 μg/ml and […] acyclovir. Similarly, other susceptible cells were infected with HSV-2 then incubated with a combination of […] at concentrations of 0, 1, 10, 30, and 60 μg/ml and 6.1 μM acyclovir. A control was used in each instance, which comprised neither picolinic acid nor acyclovir.

HSV-2 = assay: plaque reduction assay, HSV-2 in Vero cells; type: cell-based; details: for cell death observed under microscope: HSV-2 infected Vero cells
Method: as §1, §2, §3, §4, §5, §6, §7

herpes labialis = details: cited from earlier work
[1] = cytotoxicity by neutral red dye uptake assay; type: cell-based; details: African green monkey
Method: (§8) The cytotoxic effects of picolinic acid and fusaric acid were examined on Vero cells using neutral red dye uptake assay. Confluent Vero cells were cultured in a medium containing various doses of picolinic acid for two days. The testing concentrations were 0, 10, 100, 250, 500 and 1000 μg/ml for picolinic acid and 0, 1, 10, 50, 100 and 500 μg/ml for fusaric acid. Culture medium was removed from confluent Vero cells in a 96-well plate by pump. The cells were then washed once with 200 μl of PBS. 200 μl culture medium containing varying concentrations of either picolinic acid or fusaric acid was added to each well. The cells were then incubated with […] at 37° C. for two days. At the end of incubation, the medium was removed and the cells washed with PBS. 200 μl of 0.01% neutral red in PBS was subsequently added to each well and incubated at 37° C. for 30 minutes The dye was then removed and the cells washed twice with 200 μl PBS per well. The dye was extracted by addition of 200 μl of 50% ethanol/1% glacial acetic acid in PBS to each well and incubated at room temperature for 15 minutes with gentle shaking at 120-150 rpm. The absorbance at 550 nm was read on an enzyme-linked immunosorbent assay (ELISA) reader. The toxicity profiles of picolinic acid and fusaric acid on Vero cells analyzed from optical absorbance readings are shown in Table 2.

Vero cells = assay: cytotoxicity by neutral red dye uptake assay; type: cell-based
Method: as §8

With `Nc1nc2c(ncn2COCCO)c(=O)[nH]1` [Acyclovir, 2-amino-1,9-dihydro-9-[(2-hydroxyethoxy)metyl]-6H-purin-6-one] as the compound, how does the “HSV-1 (% of control)” value (HSV-1; acyclovir 1.75 μM, fusaric acid 0 μg/ml) read?
The value was 62.9 % of control.

What about the “HSV-2 (% of control)” value (HSV-2; acyclovir 6.1 μM, fusaric acid 0 μg/ml) of the same compound?
Its value is 42.9 % of control.

And the “efficacy against herpes labialis and herpes genitalis (in words)” value (herpes labialis; topical formulation)?
The value was “not effective”.

For `O=C(O)c1ccccn1` [Picolinic acid, reference compound], which CC50 at 2 days [1] is on record?
The CC50 at 2 days was ~800 µg/mL (≈ 6.5 mM).

What about the “Toxicity (% of control)” value (Vero cells; African green monkey, 2 days, 10 μg/ml) of the same compound?
The value was 105 % of control.

What about the “Toxicity (% of control)” value (Vero cells; African green monkey, 2 days, 100 μg/ml) of the same compound?
The value was 95 % of control.

What about the “Toxicity (% of control)” value (Vero cells; African green monkey, 2 days, 250 μg/ml) of the same compound?
The value was 70 % of control.

And the “Toxicity (% of control)” value (Vero cells; African green monkey, 2 days, 500 μg/ml)?
Its value is 57 % of control.

What about the “Toxicity (% of control)” value (Vero cells; African green monkey, 2 days, 1000 μg/ml) of the same compound?
Its value is 45 % of control.

Which results are given for `CCCCc1ccc(C(=O)O)nc1` [Fusaric acid]?
effect on HSV-1 (in words) (HSV-1; 10 μg/ml fusaric acid alone): no effect; EC90 (HSV-1; Human alphaherpesvirus 1, Vero, read-out: EC90-100 (effective concentration giving 90-100% plaque reduction)): ~30 µg/mL; HSV-1 plaque count (% of control) (HSV-1; fusaric acid 1 μg/ml): 101 % of control; HSV-1 plaque count (% of control) (HSV-1; fusaric acid 10 μg/ml): 105 % of control; HSV-1 plaque count (% of control) (HSV-1; fusaric acid 30 μg/ml): 0 % of control; HSV-1 plaque count (% of control) (HSV-1; fusaric acid 60 μg/ml): 0 % of control; cell death observed under microscope (HSV-1; fusaric acid 60 μg/ml): + (˜20% cell death observed under microscope); HSV-1 plaque count (% of control) (HSV-1; fusaric acid 100 μg/ml): 0 % of control; cell death observed under microscope (HSV-1; fusaric acid 100 μg/ml): ++ (˜50% cell death observed under microscope); effect on HSV-2 (in words) (HSV-2; 10 μg/ml fusaric acid alone): no effect; EC90 (HSV-2; Human alphaherpesvirus 2, Vero, read-out: EC90-100 (effective concentration giving 90-100% plaque reduction)): ~30 µg/mL; HSV-2 plaque count (% of control) (HSV-2; fusaric acid 1 μg/ml): 103 % of control; HSV-2 plaque count (% of control) (HSV-2; fusaric acid 10 μg/ml): 101 % of control; HSV-2 plaque count (% of control) (HSV-2; fusaric acid 30 μg/ml): 0 % of control; HSV-2 plaque count (% of control) (HSV-2; fusaric acid 60 μg/ml): 0 % of control; cell death observed under microscope (HSV-2; fusaric acid 60 μg/ml): + (˜20% cell death observed under microscope); HSV-2 plaque count (% of control) (HSV-2; fusaric acid 100 μg/ml): 0 % of control; cell death observed under microscope (HSV-2; fusaric acid 100 μg/ml): ++ (˜50% cell death observed under microscope); CC50 at 2 days ([1]; Vero cells, read-out: cytotoxic concentration giving 50% of cell death (CC50)): ~100 µg/mL (≈ 0.558 mM); Toxicity (% of control) (Vero cells; 1 μg/ml, Vero cells, two days): 101 % of control; Toxicity (% of control) (Vero cells; 10 μg/ml, Vero cells, two days): 76 % of control; Toxicity (% of control) (Vero cells; 50 μg/ml, Vero cells, two days): 55 % of control; Toxicity (% of control) (Vero cells; 100 μg/ml, Vero cells, two days): 49 % of control; Toxicity (% of control) (Vero cells; 500 μg/ml, Vero cells, two days): 16 % of control

With `Nc1nc2c(ncn2CCC(CO)CO)c(=O)[nH]1` [denavir] as the compound, how does the “reduction of the median duration of the illness” value (herpes labialis; herpes labialis, typically lasting about 6 to 7 days) read?
Its value is 6 h.

— patent publication US6569864B1, “Pharmaceutical agents containing acyclovir, fusaric acid and derivatives thereof” (Novactyl, Inc., priority 2001, dated 2003)
